Source: the supplement of paper PMC10331698
± gives the standard deviation of the averaged measurements.

Columns and labels:
Assay in all cases: level (log10 ratio to DMSO vehicle control); higher = higher biomarker level / cell amount than vehicle control
[1] = compound: C=C(C)C(=O)OCCC(F)(F)C(F)(F)C(F)(F)C(F)(F)C(F)(F)C(F)(F)C(F)(F)C(F)(F)F [8:2 Fluorotelomer methacrylate] (in DMSO)
Procedure: (§1)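 BioMAP Diversity Plus panel of 12 human primary cell co-culture systems (3C, 4H, LPS, SAg, BT, BF4T, BE3C, CASM3C, HDF3CGF, KF3CT, MyoF, Mphg). Compounds were added 1 h before stimulation and left for 24 h (MyoF 48 h; BT 72 h for soluble read-outs or 6 d for IgG). Biomarkers were read by ELISA, cytotoxicity by SRB, PBMC viability and proliferation by Alamar Blue. Each well value was divided by the mean of 8 DMSO control wells on the same plate and log10 transformed; duplicate blinded samples were tested at 4 concentrations.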

[2] = compound: O=S(=O)(O)C(F)(F)C(F)(F)C(F)(F)C(F)(F)C(F)(F)C(F)(F)C(F)(F)F [Perfluoroheptanesulfonic acid] (in DMSO)
Procedure: as §1

[3] = compound: O=C(O)CCC(F)(C(F)(F)F)C(F)(F)F [4,4-bis(Trifluoromethyl)-4-fluoropropanoic acid] (in DMSO)
Procedure: as §1

Perfluoroundecanoic acid = compound: O=C(O)C(F)(F)C(F)(F)C(F)(F)C(F)(F)C(F)(F)C(F)(F)C(F)(F)C(F)(F)C(F)(F)C(F)(F)F [Perfluoroundecanoic acid] (in DMSO); conditions: 6700 nM
Procedure: as §1

Octafluoroadipic acid = compound: O=C(O)C(F)(F)C(F)(F)C(F)(F)C(F)(F)C(=O)O [Octafluoroadipic acid] (in DMSO)
Procedure: as §1

[4] = compound: OCC(F)(F)C(F)(F)C(F)(F)C(F)F [1H,1H,5H-Perfluoropentanol] (in DMSO)
Procedure: as §1

[5] = compound: OCCC(F)(F)C(F)(F)C(F)(F)C(F)(F)F [4:2 Fluorotelomer alcohol] (in DMSO)
Procedure: as §1

Test System	level (log10) ([1]; 6700 nM)	level (log10) ([1]; 20000 nM)	level (log10) ([2]; 1500 nM)	level (log10) ([2]; 4400 nM)	level (log10) ([2]; 13000 nM)	level (log10) ([2]; 40000 nM)	level (log10) ([3]; 6700 nM)	level (log10) ([3]; 20000 nM)	level (log10) ([3]; 60000 nM)	level (log10) (Perfluoroundecanoic acid)	level (log10) (Octafluoroadipic acid; 6700 nM)	level (log10) (Octafluoroadipic acid; 20000 nM)	level (log10) (Octafluoroadipic acid; 60000 nM)	level (log10) ([4]; 6700 nM)	level (log10) ([4]; 20000 nM)	level (log10) ([4]; 60000 nM)	level (log10) ([5]; 6700 nM)	level (log10) ([5]; 20000 nM)	level (log10) ([5]; 60000 nM)
BE3C:EGFR	-0.007 ± 0.02	-0.01 ± 0.031	0.019 ± 0.025	-0.008 ± 0.0042	-0.002 ± 0.023	-0.012 ± 0.038	0.003 ± 0.02	-0.0105 ± 0.018	-0.012 ± 0.014	-0.064 ± 0.0014	-0.012 ± 0.017	-0.0015 ± 0.005	0.0105 ± 0.016	-0.008 ± 0.0099	0.0105 ± 0.011	0.032 ± 0.065	-0.0165 ± 0.022	-0.002 ± 0.018	0.0315 ± 0.011
4H:CD62P/P-selectin	-0.02 ± 0.02	-0.0375 ± 0.0035	-0.0225 ± 0.043	-0.0165 ± 0.005	-0.002 ± 0.02	0.0305 ± 0.022	-0.0155 ± 0.022	-0.032 ± 0.031	0.005 ± 0.086	0.064 ± 0.0028	-0.0075 ± 0.043	0.0065 ± 0.042	-0.007 ± 0.059	-0.0245 ± 0.0021	0.0205 ± 0.061	0.027 ± 0.038	-0.0235 ± 0.037	-0.02 ± 0.0071	0.025 ± 0.023
SAg:CD40	-0.0265 ± 0.035	-0.0335 ± 0.0078	-0.0375 ± 0.023	-0.0165 ± 0.012	-0.009 ± 0.016	-0.049 ± 0.014	-0.0495 ± 0.073	-0.0245 ± 0.077	-0.055 ± 0.089	-0.013 ± 0.0028	-0.0135 ± 0.015	-0.013 ± 0.023	-0.025 ± 0.016	-0.055 ± 0.033	-0.018 ± 0.031	-0.0165 ± 0.073	-0.028 ± 0.059	-0.036 ± 0.037	-0.006 ± 0.068
BT:sIL-17F	0.032 ± 0.037	0.1 ± 0.023	-0.0155 ± 0.096	0.0185 ± 0.025	0.0535 ± 0.064	-0.004 ± 0.067	0.064 ± 0.13	0.0385 ± 0.087	-0.005 ± 0.0085	-0.0225 ± 0.056	-0.027 ± 0.0028	-0.009 ± 0.078	0.0275 ± 0.076	-0.0035 ± 0.067	-0.051 ± 0.035	-0.013 ± 0.25	0.0025 ± 0.03	0.075 ± 0.055	0.0675 ± 0.14
SAg:CD38	-0.0195 ± 0.00071	-0.011 ± 0.013	-0.003 ± 0.025	-0.019 ± 0.017	-0.008 ± 0.027	-0.011 ± 0.0042	-0.02 ± 0.047	-0.008 ± 0.013	-0.0025 ± 0.019	-0.0175 ± 0.022	-0.0415 ± 0.023	-0.026 ± 0.017	-0.0265 ± 0.0021	0.0465 ± 0.018	0.0415 ± 0.022	0.0305 ± 0.049	0.0085 ± 0.11	0.0295 ± 0.1	0.0235 ± 0.077
BE3C:IL-1alpha	-0.018 ± 0.02	-0.0005 ± 0.0078	0.0275 ± 0.005	0.006	0.001 ± 0.0099	0.039 ± 0.03	0.0065 ± 0.022	-0.0105 ± 0.0078	0.007 ± 0.02	-0.069 ± 0.0042	0.0155 ± 0.0064	0.009 ± 0.023	-0.031 ± 0.0028	-0.0275 ± 0.0064	-0.0155 ± 0.018	0.0035 ± 0.023	-0.0425 ± 0.026	-0.0345 ± 0.016	-0.017 ± 0.0085
BT:sIL-17A	0.077 ± 0.13	0.041 ± 0.16	0.0335 ± 0.076	0.113 ± 0.035	0.026 ± 0.14	-0.078 ± 0.058	-0.037 ± 0.064	0.087 ± 0.054	-0.019 ± 0.19	-0.06 ± 0.25	-0.0875 ± 0.044	0.0075 ± 0.064	0.128 ± 0.092	-0.0225 ± 0.086	0.044	-0.0225 ± 0.25	-0.007 ± 0.21	-0.043 ± 0.11	-0.037 ± 0.18
3C:Proliferation	-0.0315 ± 0.005	-0.07 ± 0.034	-0.0785 ± 0.13	-0.0425 ± 0.044	0.0015 ± 0.022	-0.0275 ± 0.021	-0.05 ± 0.051	-0.015 ± 0.058	0.0345 ± 0.03	0.027 ± 0.013	-0.0705 ± 0.005	0.016 ± 0.013	-0.007 ± 0.03	-0.0045 ± 0.066	0.005 ± 0.0071	-0.033 ± 0.093	-0.011 ± 0.014	-0.0175 ± 0.032	0.013 ± 0.024
